Experimental findings from patent US8124780B2, “Benzimidazole compound” (priority 2005, dated 2012) are described below.

Counter-ions that a name gives are not always drawn. Like-named read-outs stand apart in the source and are kept apart here.

The assay relates to gastric acid secretion. Description: animal or person. In kind it is in vivo, dog. Conditions: iv; for inhibition in vivo at 1.6 mg/kg / inhibition in vivo at 0.8 mg/kg: Canis lupus familiaris.
[1] abbreviates: 24 h, read-out: Persistency of inhibitory effect against gastric acid secretion (%).
Setting [2] is: read-out: Inhibitory effect against gastric acid secretion (%).

As for `Cc1c(OC2CCC3(CC2)OCCO3)ccnc1C[S+]([O-])c1nc2ccccc2[nH]1` (stereo not drawn) [Example 27, 2-(((4-(1,4-dioxaspiro[4.5]dec-8-yloxy)-3-methylpyridin-2-yl)methyl)sulfinyl)-1H-benzimidazole sodium salt], the inhibition in vivo at 1.6 mg/kg came to 92% under setting [1] and 100% under setting [2].
Regarding `Cc1c(OCCC2COC(C)(C)OC2)ccnc1C[S+]([O-])c1nc2ccccc2[nH]1` (stereo not drawn) [Example 28, 2-(((4-(2-(2,2-dimethyl-1,3-dioxan-5-yl)ethoxy)-3-methylpyridin-2-yl)methyl)sulfinyl)-1H-benzimidazole sodium salt], the inhibition in vivo at 1.6 mg/kg is 77% under setting [1] and 94% under setting [2].
On to `CCC12OCC(COc3ccnc(C[S+]([O-])c4nc5ccccc5[n-]4)c3C)(CO1)CO2.[Na+]` (stereo not drawn) [Example 29, 2-(((4-((1-ethyl-2,6,7-trioxabicyclo[2.2.2]oct-4-yl)methoxy)-3-methylpyridin-2-yl)methyl)sulfinyl)-1H-benzimidazole sodium salt], for which, under “dog, in vivo, 1.6 mg/kg”, the “Inhibitory effect against gastric acid secretion (%)” value worked out at 100% and the “Persistency of inhibitory effect against gastric acid secretion (%)” value was 87%.
For `Cc1c(OCCC2(C)OCCCO2)ccnc1C[S+]([O-])c1nc2ccccc2[nH]1` (stereo not drawn) [Example 30, 2-(((3-methyl-4-(2-(2-methyl-1,3-dioxan-2-yl)ethoxy)pyridin-2-yl)methyl)sulfinyl)-1H-benzimidazole sodium salt], the inhibition in vivo at 0.8 mg/kg was 63% under setting [1] and 100% under setting [2]. Besides, the inhibition in vivo at 1.6 mg/kg reads like this: under setting [1], 95%; under setting [2], 100%.
Turning to `Cc1c(OCCC2COC3(CCC3)OC2)ccnc1C[S+]([O-])c1nc2ccccc2[nH]1` (stereo not drawn) [Example 31, 2-(((4-(2-(5,9-dioxaspiro[3.5]non-7-yl)ethoxy)-3-methylpyridin-2-yl)methyl)sulfinyl)-1H-benzimidazole sodium salt], the inhibition in vivo at 1.6 mg/kg is 97% under setting [1] and 100% under setting [2].
Take `Cc1c(OCC2OCCCO2)ccnc1C[S+]([O-])c1nc2ccccc2[nH]1` (stereo not drawn) [Example 32, 2-(((4-(1,3-dioxan-2-ylmethoxy)-3-methylpyridin-2-yl)methyl)sulfinyl)-1H-benzimidazole sodium salt]: the inhibition in vivo at 1.6 mg/kg by setting is: under setting [1], 83%; under setting [2], 100%.
Turning to `Cc1c(OCC2(C)OCCCO2)ccnc1C[S+]([O-])c1nc2ccccc2[nH]1` (stereo not drawn) [Example 33, 2-(((3-methyl-4-((2-methyl-1,3-dioxan-2-yl)methoxy)pyridin-2-yl)methyl)sulfinyl)-1H-benzimidazole sodium salt], the inhibition in vivo at 1.6 mg/kg by setting is: under setting [1], 84%; under setting [2], 100%.
Regarding `Cc1c(OCCC2(C)OCC(C)(C)CO2)ccnc1C[S+]([O-])c1nc2ccccc2[nH]1` (stereo not drawn) [Example 34, 2-(((3-methyl-4-(2-(2,5,5-trimethyl-1,3-dioxan-2-yl)ethoxy)pyridin-2-yl)methyl)sulfinyl)-1H-benzimidazole sodium salt], the inhibition in vivo at 1.6 mg/kg came to 78% under setting [1] and 100% under setting [2].
On the same counts, the results for `COCC1(CCOc2ccnc(C[S+]([O-])c3nc4ccccc4[nH]3)c2C)OCCCO1` (stereo not drawn) [Example 36, 2-(((4-(2-(2-(methoxymethyl)-1,3-dioxan-2-yl)ethoxy)-3-methylpyridin-2-yl)methyl)sulfinyl)-1H-benzimidazole sodium salt] are 90% and 100%.
Taken in the same sequence, the figures for `CCC1(CCOc2ccnc(C[S+]([O-])c3nc4ccccc4[nH]3)c2C)OCCO1` (stereo not drawn) [Example 39, 2-(((4-(2-(2-ethyl-1,3-dioxolan-2-yl)ethoxy)-3-methylpyridin-2-yl)methyl)sulfinyl)-1H-benzimidazole sodium salt] were 86% and 100%.
For `CCC1(COc2ccnc(C[S+]([O-])c3nc4ccccc4[nH]3)c2C)OCCO1` (stereo not drawn) [Example 40, 2-(((4-((2-ethyl-1,3-dioxolan-2-yl)methoxy)-3-methylpyridin-2-yl)methyl)sulfinyl)-1H-benzimidazole sodium salt], under setting [1], the inhibition in vivo at 0.8 mg/kg is 66% and the inhibition in vivo at 1.6 mg/kg amounted to 92%. Besides, under setting [2], the inhibition in vivo at 0.8 mg/kg was found to be 99% and the inhibition in vivo at 1.6 mg/kg came out at 100%.
As for `CCC1(CCOc2ccnc(C[S+]([O-])c3nc4c(C)cccc4[nH]3)c2C)OCCO1` (stereo not drawn) [Example 41, 2-(((4-(2-(2-ethyl-1,3-dioxolan-2-yl)ethoxy)-3-methylpyridin-2-yl)methyl)sulfinyl)-4-methyl-1H-benzimidazole sodium salt], the inhibition in vivo at 1.6 mg/kg under setting [1] amounted to 85% and the inhibition in vivo at 1.6 mg/kg under setting [2] is 100%.
In the case of `CCC1(COc2ccnc(C[S+]([O-])c3nc4ccccc4[nH]3)c2C)OCCCO1` (stereo not drawn) [Example 42, 2-(((4-((2-ethyl-1,3-dioxan-2-yl)methoxy)-3-methylpyridin-2-yl)methyl)sulfinyl)-1H-benzimidazole sodium salt], the inhibition in vivo at 0.8 mg/kg reads like this: under setting [1], 72%; under setting [2], 60%.
In the case of `Cc1c(OCC2OCC(F)(F)CO2)ccnc1C[S+]([O-])c1nc2ccccc2[nH]1` (stereo not drawn) [Example 46, 2-(((4-((5,5-difluoro-1,3-dioxan-2-yl)methoxy)-3-methylpyridin-2-yl)methyl)sulfinyl)-1H-benzimidazole sodium salt], the inhibition in vivo at 0.8 mg/kg reads like this: under setting [1], 95%; under setting [2], 100%.
As to `Cc1ccc2[nH]c([S+]([O-])Cc3nccc(OCCC4COC(C)(C)O4)c3C)nc2c1` (stereo not drawn) [Example 47, 2-(((4-(2-(2,2-dimethyl-1,3-dioxolan-4-yl)ethoxy)-3-methylpyridin-2-yl)methyl)sulfinyl)-5-methyl-1H-benzimidazole sodium salt], the inhibition in vivo at 1.6 mg/kg stood at 87% under setting [1] and 100% under setting [2].
Consider `[O-][S+](Cc1cc(OCC2OCC3(CC3)CO2)ccn1)c1nc2ccccc2[nH]1` (stereo not drawn) [Example 50, 2-(((4-(5,7-dioxaspiro[2.5]oct-6-ylmethoxy)pyridin-2-yl)methyl)sulfinyl)-1H-benzimidazole sodium salt], for which the inhibition in vivo at 0.8 mg/kg is 80% under setting [1] and 79% under setting [2].
Take `CCc1c(OCC2COC(C)(C)O2)ccnc1C[S+]([O-])c1nc2ccccc2[nH]1` (stereo not drawn) [Example 51, 2-(((4-((2,2-dimethyl-1,3-dioxolan-4-yl)methoxy)-3-ethylpyridin-2-yl)methyl)sulfinyl)-1H-benzimidazole sodium salt]: the inhibition in vivo at 1.6 mg/kg was found to be 83% under setting [1] and 100% under setting [2].
On the same counts, the results for `Cc1c(OCC2COC(C)(C)O2)ccnc1C[S+]([O-])c1nc2cc(F)ccc2[nH]1` (stereo not drawn) [Example 52, 2-(((4-((2,2-dimethyl-1,3-dioxolan-4-yl)methoxy)-3-methylpyridin-2-yl)methyl)sulfinyl)-5-fluoro-1H-benzimidazole sodium salt] are 87% and 100%.
Regarding `Cc1c(OCC2COCOC2)ccnc1C[S+]([O-])c1nc2ccccc2[nH]1` (stereo not drawn) [Example 53, 2-(((4-(1,3-dioxan-5-ylmethoxy)-3-methylpyridin-2-yl)methyl)sulfinyl)-1H-benzimidazole sodium salt], the inhibition in vivo at 0.8 mg/kg reads like this: under setting [1], 87%; under setting [2], 99%.
